Experiment [1] concerns the target kinases in BCWM.1 cells (Homo sapiens, UniProt P49841). Put plainly: KINATIV assay of compounds I-3 and I-9, lysate directly labeled with ATP-biotin probe (no GF). Type of experiment: cell-based. Conditions: GSK3B; Lys2; 1 μM; no GF. The protocol: (§1) The cells were harvested and lysed. […] Bound kinases were identified and quantitated by ACTIVX as described in Patricelli et al., Biochemistry, 2007, 46(2): 350-358. The compounds were tested in duplicates against duplicate or quadruplicate control samples.

Experiment [2] concerns the target kinases in BCWM.1 cells (Homo sapiens, UniProt P00533). The description is as above. Type of experiment: cell-based. Conditions: EGFR; Lys1; 1 μM; no GF. The procedure:
as §1

Experiment [3] has as its target kinases in BCWM.1 cells (Homo sapiens, UniProt P24941). Described as above. Format: cell-based. Conditions: CDK2; Lys2; 1 μM; no GF. The procedure:
as §1

For experiment [4], the target named is kinases in BCWM.1 cells (Homo sapiens, UniProt Q8IU85). The description is as above. Format: cell-based. To be noted: CaMKld; Lys1; 1 μM; no GF. The procedure:
as §1

In experiment [5] the target is kinases in BCWM.1 cells (Homo sapiens, UniProt O14965). The description is as above. Type of experiment: cell-based. The procedure: as §1
Experiment [6] concerns the target kinases in BCWM.1 cells (Homo sapiens, UniProt P06239). The description is as above. Format: cell-based. To be noted: LCK; Activation Loop; 1 μM; no GF. The protocol:
as §1

Experiment [7] addresses kinases in BCWM.1 cells (Homo sapiens, UniProt P41240). The experiment is described as above. Format: cell-based. Conditions: CSK; Activation Loop; 1 μM; no GF. The procedure: as §1
For experiment [8], the target named is kinases in BCWM.1 cells (Homo sapiens, UniProt O75582). Described as above. Format: cell-based. To be noted: MSK1 domain1; Lys2; 1 μM; no GF. The protocol:
as §1

In experiment [9] the target is kinases in BCWM.1 cells (Homo sapiens, UniProt Q06187). The description is as above. Type of experiment: cell-based. Conditions: BTK; Activation Loop; 1 μM; no GF. The protocol:
as §1

The target of experiment [10] is kinases in BCWM.1 cells (Homo sapiens, UniProt Q96L34). The experiment is described as above. To be noted: MARK4; Lys2; 1 μM; no GF. Type of experiment: cell-based. The procedure: as §1
The target in experiment [11] is kinases in BCWM.1 cells (Homo sapiens, UniProt P07948). Described as above. Type of experiment: cell-based. Conditions: LYN; Lys1; 1 μM; no GF. The procedure:
as §1

Experiment [12] has as its target kinases in BCWM.1 cells (Homo sapiens, UniProt Q13233). The experiment is described as above. To be noted: MAP3K1; Lys2; 1 μM; no GF. Type of experiment: cell-based. The procedure: as §1
Experiment [13] concerns the target kinases in BCWM.1 cells (Homo sapiens, UniProt P31749). The description is as above. To be noted: AKT1; ATP Loop; 1 μM; no GF. Format: cell-based. The protocol: as §1
Experiment [14] has as its target kinases in BCWM.1 cells (Homo sapiens, UniProt P27361). The description is as above. Type of experiment: cell-based. Conditions: Erk1; Lys2; 1 μM; no GF. The procedure:
as §1

Experiment [15] deals with kinases in BCWM.1 cells (Homo sapiens, UniProt Q96GX5). The description is as above. Type of experiment: cell-based. To be noted: MASTL, 1 μM, no GF. The procedure:
as §1

The target in experiment [16] is kinases in BCWM.1 cells (Homo sapiens, UniProt Q13572). The description is as above. Format: cell-based. Conditions: ITPK1; ATP; 1 μM; no GF. The procedure:
as §1

Experiment [17] has as its target kinases in BCWM.1 cells (Homo sapiens, UniProt Q5S007). Type of experiment: cell-based. To be noted: LRRK2; Lys2; 1 μM; GF. The protocol:
as §1

Experiment [18] deals with kinases in BCWM.1 cells (Homo sapiens, UniProt O00506). Type of experiment: cell-based. Conditions: YSK1; Lys1; 1 μM, 90 min; GF. The protocol: as §1
The target in experiment [19] is kinases in BCWM.1 cells (Homo sapiens, UniProt P49761). Format: cell-based. To be noted: CLK3; ATP Loop; 1 μM; GF. The procedure:
as §1

Experiment [20] addresses kinases in BCWM.1 cells (Homo sapiens, UniProt P80192). Type of experiment: cell-based. To be noted: MLK1; Lys2; 1 μM; GF. The protocol: as §1
For experiment [21], the target named is kinases in BCWM.1 cells (Homo sapiens, UniProt O14920). Format: cell-based. To be noted: IKKb; Lys2; 1 μM; GF. The procedure: as §1
The target of experiment [22] is kinases in BCWM.1 cells (Homo sapiens, UniProt Q02156). Type of experiment: cell-based. Conditions: PKCe; Lys2; 1 μM, 90 min; GF. The protocol: as §1
The target in experiment [23] is kinases in BCWM.1 cells (Homo sapiens, UniProt Q13418). Type of experiment: cell-based. Conditions: ILK, 1 μM, GF. The procedure:
as §1

The target of experiment [24] is kinases in BCWM.1 cells (Homo sapiens, UniProt Q86UX6). The experiment is described as follows: KINATIV assay of compounds I-3 and I-9, lysate directly labeled with ATP-biotin probe (no GF). Conditions: YANK3; Lys2; 1 μM, 90 min; no GF. Type of experiment: cell-based. The protocol:
as §1

The target of experiment [25] is kinases in BCWM.1 cells (Homo sapiens, UniProt Q9Y2K2). The description is as above. Type of experiment: cell-based. Conditions: QSK; Lys2; 1 μM, 90 min; no GF. The protocol: as §1
In experiment [26] the target is kinases in BCWM.1 cells (Homo sapiens, UniProt Q8TCG2). The description is as above. Conditions: PI4K2B; ATP; 1 μM, 90 min; no GF. Type of experiment: cell-based. The protocol: as §1
In experiment [27] the target is kinases in BCWM.1 cells (Homo sapiens, UniProt P51956). The description is as above. Format: cell-based. Conditions: NEK3; Activation Loop; 1 μM, 90 min; no GF. The procedure:
as §1

Experiment [28] concerns the target kinases in BCWM.1 cells (Homo sapiens, UniProt P41743). Described as above. Type of experiment: cell-based. Conditions: PKCi; Lys1; 1 μM, 90 min; no GF. The procedure: as §1
The target in experiment [29] is kinases in BCWM.1 cells (Homo sapiens, UniProt O94806). The description is as above. Conditions: PKD3; Lys1; 1 μM, 90 min; no GF. Format: cell-based. The protocol:
as §1

Experiment [30] deals with BTK (Homo sapiens (Human), UniProt Q06187). The experiment is described as follows: BTK inhibitory activity. Type of experiment: biochemical.

The values below come from patent US10844077B2, “Thiazolyl-containing compounds for treating proliferative diseases” (Dana-Farber Cancer Institute, Inc., priority 2014, dated 2020).

Structures are written as SMILES. Values joined by “and” are separate entries in the source; they are usually repeats but may differ in a detail not shown here. Equal values may be shown once. Read-outs that look alike come from different tables or passages of the source.

Chain of kinases in BCWM.1 cells (Homo sapiens, UniProt P06239) (P06239 2-509 limits assumed): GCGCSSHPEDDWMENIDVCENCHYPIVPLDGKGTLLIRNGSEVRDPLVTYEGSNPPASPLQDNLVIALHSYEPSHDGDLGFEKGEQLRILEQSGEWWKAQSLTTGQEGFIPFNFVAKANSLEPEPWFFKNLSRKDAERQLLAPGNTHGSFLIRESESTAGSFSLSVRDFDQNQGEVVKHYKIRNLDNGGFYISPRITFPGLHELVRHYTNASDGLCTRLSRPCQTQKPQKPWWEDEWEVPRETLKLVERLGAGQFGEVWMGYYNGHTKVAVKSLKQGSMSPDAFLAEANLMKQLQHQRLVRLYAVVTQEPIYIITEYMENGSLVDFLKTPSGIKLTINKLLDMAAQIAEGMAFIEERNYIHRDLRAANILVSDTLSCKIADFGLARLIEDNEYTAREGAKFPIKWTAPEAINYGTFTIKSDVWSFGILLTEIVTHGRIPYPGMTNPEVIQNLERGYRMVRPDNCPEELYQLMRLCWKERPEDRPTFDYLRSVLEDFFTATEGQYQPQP
Chain of kinases in BCWM.1 cells (Homo sapiens, UniProt P41240) (P41240 2-450 limits assumed): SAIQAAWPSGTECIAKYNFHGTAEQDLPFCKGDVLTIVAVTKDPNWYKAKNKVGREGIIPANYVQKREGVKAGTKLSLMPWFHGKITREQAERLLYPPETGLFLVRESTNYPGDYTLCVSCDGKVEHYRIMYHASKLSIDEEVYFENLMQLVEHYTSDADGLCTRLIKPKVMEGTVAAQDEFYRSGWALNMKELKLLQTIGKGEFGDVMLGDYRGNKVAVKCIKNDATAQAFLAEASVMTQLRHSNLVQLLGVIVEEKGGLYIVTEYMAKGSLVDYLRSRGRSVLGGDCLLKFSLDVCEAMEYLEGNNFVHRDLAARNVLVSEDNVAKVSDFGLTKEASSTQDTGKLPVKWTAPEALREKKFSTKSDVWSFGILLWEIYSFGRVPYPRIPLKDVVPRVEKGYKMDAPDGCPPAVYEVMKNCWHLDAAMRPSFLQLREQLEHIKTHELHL
Chain of kinases in BCWM.1 cells (Homo sapiens, UniProt Q06187) (Q06187 2-659 limits assumed): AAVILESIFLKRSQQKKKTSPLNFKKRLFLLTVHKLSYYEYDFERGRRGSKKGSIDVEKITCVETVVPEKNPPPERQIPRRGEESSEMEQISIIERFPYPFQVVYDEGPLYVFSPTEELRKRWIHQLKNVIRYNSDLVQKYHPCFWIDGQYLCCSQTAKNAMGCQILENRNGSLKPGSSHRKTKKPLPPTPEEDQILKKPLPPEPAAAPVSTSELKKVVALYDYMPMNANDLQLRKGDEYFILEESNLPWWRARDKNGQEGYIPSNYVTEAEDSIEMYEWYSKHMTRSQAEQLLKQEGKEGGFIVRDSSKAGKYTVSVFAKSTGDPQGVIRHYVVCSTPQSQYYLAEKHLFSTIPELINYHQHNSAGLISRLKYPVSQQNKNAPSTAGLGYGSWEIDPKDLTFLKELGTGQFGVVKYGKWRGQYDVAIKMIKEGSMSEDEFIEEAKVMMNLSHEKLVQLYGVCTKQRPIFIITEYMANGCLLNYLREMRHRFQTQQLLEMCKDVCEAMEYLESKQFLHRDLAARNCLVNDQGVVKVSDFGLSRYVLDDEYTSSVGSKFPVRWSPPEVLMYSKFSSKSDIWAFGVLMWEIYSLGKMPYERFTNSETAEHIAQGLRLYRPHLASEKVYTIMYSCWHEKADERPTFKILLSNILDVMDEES
Chain of kinases in BCWM.1 cells (Homo sapiens, UniProt P27361) (P27361 2-379 limits assumed): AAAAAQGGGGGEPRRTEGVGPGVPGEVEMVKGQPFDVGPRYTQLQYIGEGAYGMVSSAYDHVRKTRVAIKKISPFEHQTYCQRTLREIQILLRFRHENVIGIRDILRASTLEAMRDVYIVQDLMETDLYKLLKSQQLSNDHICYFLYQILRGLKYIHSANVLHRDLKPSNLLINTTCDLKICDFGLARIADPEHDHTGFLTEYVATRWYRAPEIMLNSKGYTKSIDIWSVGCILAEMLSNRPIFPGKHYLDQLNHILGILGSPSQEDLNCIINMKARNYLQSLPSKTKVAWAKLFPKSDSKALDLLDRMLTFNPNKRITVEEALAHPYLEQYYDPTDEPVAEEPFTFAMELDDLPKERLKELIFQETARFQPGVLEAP
Chain of kinases in BCWM.1 cells (Homo sapiens, UniProt Q13233) (Q13233 2-1512 limits assumed): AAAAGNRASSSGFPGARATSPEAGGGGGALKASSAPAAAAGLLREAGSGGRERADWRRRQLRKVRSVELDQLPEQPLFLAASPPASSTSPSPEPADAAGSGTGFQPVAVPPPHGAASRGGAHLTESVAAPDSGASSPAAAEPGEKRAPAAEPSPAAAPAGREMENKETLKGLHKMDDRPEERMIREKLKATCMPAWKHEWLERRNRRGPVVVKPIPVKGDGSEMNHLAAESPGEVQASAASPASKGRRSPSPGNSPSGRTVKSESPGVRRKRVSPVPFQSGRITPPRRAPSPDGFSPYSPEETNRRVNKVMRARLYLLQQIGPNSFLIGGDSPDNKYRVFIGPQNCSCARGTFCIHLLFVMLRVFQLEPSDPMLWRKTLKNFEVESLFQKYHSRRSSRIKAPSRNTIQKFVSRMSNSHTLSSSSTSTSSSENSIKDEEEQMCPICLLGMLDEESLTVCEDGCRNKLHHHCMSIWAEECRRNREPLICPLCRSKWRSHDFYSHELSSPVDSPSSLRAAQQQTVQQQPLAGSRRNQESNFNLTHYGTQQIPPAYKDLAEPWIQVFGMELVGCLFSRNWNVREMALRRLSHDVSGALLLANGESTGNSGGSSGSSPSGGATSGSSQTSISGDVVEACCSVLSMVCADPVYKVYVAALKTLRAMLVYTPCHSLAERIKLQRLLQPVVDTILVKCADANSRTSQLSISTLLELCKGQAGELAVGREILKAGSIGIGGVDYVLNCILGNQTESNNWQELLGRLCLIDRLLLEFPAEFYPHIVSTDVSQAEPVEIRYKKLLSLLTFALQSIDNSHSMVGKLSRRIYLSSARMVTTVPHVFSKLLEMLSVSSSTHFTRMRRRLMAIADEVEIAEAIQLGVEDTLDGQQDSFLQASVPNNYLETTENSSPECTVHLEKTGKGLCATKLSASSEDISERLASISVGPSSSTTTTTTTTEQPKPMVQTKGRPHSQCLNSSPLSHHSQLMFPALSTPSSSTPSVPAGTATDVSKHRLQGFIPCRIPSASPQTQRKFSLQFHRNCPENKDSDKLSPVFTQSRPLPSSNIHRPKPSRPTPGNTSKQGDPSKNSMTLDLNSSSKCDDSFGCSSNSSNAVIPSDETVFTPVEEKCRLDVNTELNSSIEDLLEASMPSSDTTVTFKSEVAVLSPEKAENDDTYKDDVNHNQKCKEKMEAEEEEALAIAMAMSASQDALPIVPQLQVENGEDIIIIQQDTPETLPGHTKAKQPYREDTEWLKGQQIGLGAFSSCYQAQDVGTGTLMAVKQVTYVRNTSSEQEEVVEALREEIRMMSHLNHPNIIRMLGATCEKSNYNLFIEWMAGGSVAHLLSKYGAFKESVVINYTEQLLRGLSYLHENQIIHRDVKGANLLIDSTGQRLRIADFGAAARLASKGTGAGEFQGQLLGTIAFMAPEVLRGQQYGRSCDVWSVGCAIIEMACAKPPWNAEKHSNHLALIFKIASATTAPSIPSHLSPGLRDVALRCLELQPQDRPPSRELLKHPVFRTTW
Chain of kinases in BCWM.1 cells (Homo sapiens, UniProt P00533) (P00533 25-1210 limits assumed): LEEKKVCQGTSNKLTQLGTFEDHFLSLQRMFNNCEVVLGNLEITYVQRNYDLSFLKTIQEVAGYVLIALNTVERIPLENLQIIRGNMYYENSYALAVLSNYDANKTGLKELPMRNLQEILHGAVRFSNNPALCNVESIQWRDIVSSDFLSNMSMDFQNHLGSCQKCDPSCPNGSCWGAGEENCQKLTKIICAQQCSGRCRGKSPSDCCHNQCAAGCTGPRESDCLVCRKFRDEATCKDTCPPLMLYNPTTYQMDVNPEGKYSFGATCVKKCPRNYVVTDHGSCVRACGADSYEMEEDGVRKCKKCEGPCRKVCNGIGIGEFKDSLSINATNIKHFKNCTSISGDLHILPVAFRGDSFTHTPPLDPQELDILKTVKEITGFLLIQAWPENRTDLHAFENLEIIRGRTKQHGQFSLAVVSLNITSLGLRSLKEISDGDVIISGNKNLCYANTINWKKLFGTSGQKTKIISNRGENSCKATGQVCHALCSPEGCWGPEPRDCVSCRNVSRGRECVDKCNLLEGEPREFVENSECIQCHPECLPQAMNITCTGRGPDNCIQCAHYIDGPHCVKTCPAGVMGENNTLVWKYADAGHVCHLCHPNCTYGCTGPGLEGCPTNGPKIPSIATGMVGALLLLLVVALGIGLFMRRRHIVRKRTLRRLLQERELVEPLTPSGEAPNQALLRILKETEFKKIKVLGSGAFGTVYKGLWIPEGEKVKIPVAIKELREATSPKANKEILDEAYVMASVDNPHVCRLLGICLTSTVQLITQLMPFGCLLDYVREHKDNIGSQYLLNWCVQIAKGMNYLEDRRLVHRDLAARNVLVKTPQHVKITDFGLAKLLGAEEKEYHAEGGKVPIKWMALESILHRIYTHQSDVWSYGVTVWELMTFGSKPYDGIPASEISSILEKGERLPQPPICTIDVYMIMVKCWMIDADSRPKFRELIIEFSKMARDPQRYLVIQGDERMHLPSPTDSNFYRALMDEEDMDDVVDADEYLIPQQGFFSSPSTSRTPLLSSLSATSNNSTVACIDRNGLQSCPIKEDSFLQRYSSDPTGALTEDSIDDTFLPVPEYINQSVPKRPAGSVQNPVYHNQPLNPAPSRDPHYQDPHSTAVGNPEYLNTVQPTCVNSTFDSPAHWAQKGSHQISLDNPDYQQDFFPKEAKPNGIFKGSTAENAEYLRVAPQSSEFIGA

Consider `C=CC(=O)N1CC[C@H](Nc2nccc(Nc3ncc(C(=O)Nc4c(C)cccc4C)s3)n2)C1` [Example I-3], for which the “% change of MS signal compared to control sample” value (shortened to “% change of MS signal”) in experiment [1] is 9.4% and −0.5%; in experiment [2], 20% and 17%; in experiment [3] it was 3.6% and 1.2%; in experiment [4], −0.4% and −5%; in experiment [5], 12.7%; in [6], 92.6% and 92.7%. Also, the “% change of MS signal” value in [7] is 36% and 60.3%; in [8] it was −2.8% and −9%; in experiment [9], 94.7% and 95.2%; in [10] it was −8.5% and −8.7%; in [11], greater than 98%; in experiment [12], 22.5% and 18.8%. For the same compound, the “% change of MS signal” value in experiment [13] was −20.4% and −21.9%; in experiment [14], −0.6% and 1.5%; in [15] (ATP Loop), 5.3% and 6%; in experiment [15] (Lys1), 16.4% and 9.8%; in experiment [16] it was 8.5% and 1.5%.

For the compound `CCC(=O)N1CC[C@H](Nc2nccc(Nc3ncc(C(=O)Nc4c(C)cccc4C)s3)n2)C1` [Example I-9], the “% change of MS signal” value in experiment [17] was −26.4% and −21.7%; in experiment [18] it was −20.8%; in [19], −19% and −10.3%; in [20], 1% and 9%; in experiment [21], 0.4% and −1.4%; in [22], −7%. The “% change of MS signal” value in experiment [23] (Lys1) is −1.9% and 1.2%; in [23] (Protein Kinase Domain), 24.5% and 12.4%; in [24], −8.6%; in experiment [25], −1.8%; in [26], 2.6%; in experiment [27], −21.2%. For the same compound, the figures for the “% change of MS signal” value in [28] and in experiment [29] were 16.5% and −15.2%, respectively.

On to `C=CC(=O)N1CCC(Cn2ccc(Nc3ncc(C(=O)Nc4c(C)cccc4Cl)s3)n2)C1` (centres unmarked) [II-1], for which the IC50 in experiment [30] turned out to be 1.1 nM.
